# Measurements: the supplement of paper PMC7600603
# Columns and labels:
# DLD1 NRF2-WT [1] = test: drug sensitivity score (DSS) cytotoxicity (DSS score); higher = more toxic; extreme values may be limits of the assay; conditions: 72 h; CellTox Green cytotoxicity
# In short: (§1)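 TC50 and drug sensitivity score, a normalised area under the curve, were derived by logistic dose-response fits of cytotoxicity. The cells were an isogenic DLD1 colorectal cancer pair, NRF2 wild-type or CRISPR-edited, kept in DMEM with 10% FBS. Compounds were tested in 384-well plates at 5 concentrations across a 10,000-fold range for 72 h. Readings with CellTox Green on a Pherastar FS reader were normalised to vehicle wells and 100-μM positive-control wells.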
# DLD1 NRF2-GOF [2] = test: as above; conditions: 72 h; CellTox Green cytotoxicity
# In short: as §1
# DLD1 NRF2-WT [3] = test: drug sensitivity score (DSS) viability (DSS score); higher = more sensitive; extreme values may be limits of the assay; conditions: 72 h; CellTiter-Glo viability
# In short: (§2)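 Isogenic DLD1 colorectal cancer cells, either NRF2 wild-type or CRISPR gain-of-function, were grown in DMEM with 10% FBS. They were exposed in 384-well plates to library compounds at 5 concentrations spanning a 10,000-fold range. After 72 h, viability was read by CellTiter-Glo on a Pherastar FS reader and normalised to vehicle wells and 100-μM positive-control wells. EC50 and drug sensitivity score (a normalised area under the curve) came from four-parameter logistic dose-response fits.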
# DLD1 NRF2-GOF [4] = test: as above; conditions: 72 h; CellTiter-Glo viability
# In short: as §2
# DLD1 NRF2-WT [5] = test: TC50 cytotoxicity; higher = less toxic; conditions: 72 h; CellTox Green cytotoxicity
# In short: as §1
# DLD1 NRF2-GOF [6] = test: TC50 cytotoxicity; higher = less toxic; conditions: 72 h; CellTox Green cytotoxicity
# In short: as §1
# DLD1 NRF2-WT [7] = conditions: 72 h; CellTiter-Glo viability
# In short: as §2
# DLD1 NRF2-GOF [8] = conditions: 72 h; CellTiter-Glo viability
# In short: as §2
SMILES,EC50 viability (DLD1 NRF2-WT [7]),EC50 viability (DLD1 NRF2-GOF [8]),drug sensitivity score (DLD1 NRF2-WT [1]),drug sensitivity score (DLD1 NRF2-GOF [2]),drug sensitivity score (DLD1 NRF2-WT [3]),drug sensitivity score (DLD1 NRF2-GOF [4]),TC50 cytotoxicity (DLD1 NRF2-WT [5]),TC50 cytotoxicity (DLD1 NRF2-GOF [6])
CCN(CCO)CCCOc1ccc2c(Nc3cc(CC(=O)Nc4cccc(F)c4)[nH]n3)ncnc2c1 [AZD1152-HQPA],35.5 nM,65.8 nM,5.5,7.7,6.6,6.7,53.4 nM,56.8 nM
C[C@@]1(C(=O)Nc2ccc(F)nc2)CCCN1c1nc(Nc2cc(C3CC3)n[nH]2)c2cccn2n1,252 nM,279 nM,6.3,11,13,14.8,326 nM,319 nM
CCn1cc(-c2ccnc3[nH]c(-c4cccc(CN(C)C)c4)cc23)c(-c2ccc(NC(=O)N(C)C)cc2)n1,172 nM,45.2 nM,0,1.6,2.8,4.4,> 1000 nM,> 1000 nM
Cc1cc2c(C(C)C)c(O)c(O)c(C=O)c2c(O)c1-c1c(C)cc2c(C(C)C)c(O)c(O)c(C=O)c2c1O [AT 101],4410 nM,6100 nM,1.7,1,15.9,14.4,30300 nM,> 100000 nM
O=C1CCc2c(Oc3ccc4c(c3)[C@@H]3[C@H](O4)[C@H]3c3nc4cc(C(F)(F)F)ccc4[nH]3)ccnc2N1 [BGB-283],1620 nM,4130 nM,0,0,5,1.5,> 10000 nM,> 10000 nM
COc1cc(Nc2c(C#N)cnc3cc(OCCCN4CCN(C)CC4)c(OC)cc23)c(Cl)cc1Cl [Bosutinib],1220 nM,1480 nM,3.8,3.1,10,9.3,3500 nM,3430 nM
COc1cc(N2CCC(N3CCN(C)CC3)CC2)ccc1Nc1ncnc(Nc2ccccc2S(=O)(=O)C(C)C)n1 [ASP3026],3550 nM,3420 nM,0,0,3.3,3,> 10000 nM,> 10000 nM

# Further lines, with some results ahead:
EC50 viability (DLD1 NRF2-WT [7]),EC50 viability (DLD1 NRF2-GOF [8]),SMILES,drug sensitivity score (DLD1 NRF2-WT [1]),drug sensitivity score (DLD1 NRF2-GOF [2]),drug sensitivity score (DLD1 NRF2-WT [3]),drug sensitivity score (DLD1 NRF2-GOF [4]),TC50 cytotoxicity (DLD1 NRF2-WT [5]),TC50 cytotoxicity (DLD1 NRF2-GOF [6])
64.9 nM,70.1 nM,Cc1[nH]c2ccccc2c1CCNCc1ccc(/C=C/C(=O)NO)cc1 [Panobinostat],6.6,1.1,13.3,11.2,124 nM,> 1000 nM
168 nM,138 nM,COc1cccc2c1C(=O)c1c(O)c3c(c(O)c1C2=O)C[C@@](O)(C(=O)CO)C[C@@H]3O[C@H]1C[C@H](N)[C@H](O)[C@H](C)O1 [Doxorubicin],0,0,8.1,9.2,> 1000 nM,> 1000 nM
> 10000 nM,> 10000 nM,CC[C@@](C)(Nc1ccnc(-c2c[nH]c3ncccc23)n1)C(=O)NCC(F)(F)F [Decernotinib],0,0,0,0,> 10000 nM,> 10000 nM
3250 nM,2010 nM,CC(=O)N(O)CCCCCNC(=O)CCC(=O)N(O)CCCCCNC(=O)CCC(=O)N(O)CCCCCN [Deferoxamine],0,0,4.8,7,> 10000 nM,> 10000 nM
> 10000 nM,> 10000 nM,C[C@]1(O)C[C@@H](c2nc(-c3ccc4ccc(-c5ccccc5)nc4c3)c3c(N)nccn32)C1 [Linsitinib],0,0,0,0,> 10000 nM,> 10000 nM
207 nM,98.6 nM,Cc1ccc(C(=O)Nc2ccc(Oc3cc4cnn(C)c4cc3-c3cn[nH]c3)c(F)c2)c(=O)n1-c1ccc(F)cc1 [Merestinib],0,0,4.2,7.9,> 1000 nM,> 1000 nM
795 nM,929 nM,CCCCc1nc2cc(/C=C/C(=O)NO)ccc2n1CCN(CC)CC [Pracinostat],4,1.6,11.9,9.1,1480 nM,> 10000 nM
937 nM,1330 nM,CCCN(CCC)C(=O)C1=Cc2ccc(-c3ccc(C(=O)N4CCCC4)cc3)cc2N=C(N)C1 [Motolimod],0,0,4.4,3.6,> 10000 nM,> 10000 nM
> 1000 nM,> 1000 nM,Cc1cnc(NC(=O)Nc2cc(Br)c(C)cc2OC[C@@H]2CNCCO2)cn1 [Rabusertib],0,0,0.3,1,> 1000 nM,> 1000 nM
737 nM,365 nM,COc1cccc(OCCCN)c1-c1cc(Nc2cnc(C#N)cn2)n[nH]1 [Prexasertib],3.8,3.6,12.1,13.5,1490 nM,931 nM
2250 nM,1710 nM,CO[C@H]1CC[C@H](N2C(=O)CNc3ncc(-c4ccc(C(C)(C)O)nc4)nc32)CC1 [CC-223],0,0.1,4.6,5.3,> 10000 nM,> 10000 nM
